Laboratory results published in paper PMC3961306, “Comparison of the Cancer Gene Targeting and Biochemical Selectivities of All Targeted Kinase Inhibitors Approved for Clinical Use” (PLoS ONE, 2014).

Assays:
Experiment in all cases: Kinase profiling in a biochemical assay panel (mobility shift assays and ELISA), %-inhibition at 1 μM; selectivity entropy
[1] = biological target: panel of more than 300 wild-type and mutant kinases (313 kinase panel) (Homo sapiens, UniProt P35916)
[2] = biological target: panel of more than 300 wild-type and mutant kinases (313 kinase panel) (Homo sapiens, UniProt P49840)
[3] = biological target: T1, panel of more than 300 wild-type and mutant kinases (313 kinase panel) (Homo sapiens, UniProt Q13188)
T1 sequence (Q13188 1-491): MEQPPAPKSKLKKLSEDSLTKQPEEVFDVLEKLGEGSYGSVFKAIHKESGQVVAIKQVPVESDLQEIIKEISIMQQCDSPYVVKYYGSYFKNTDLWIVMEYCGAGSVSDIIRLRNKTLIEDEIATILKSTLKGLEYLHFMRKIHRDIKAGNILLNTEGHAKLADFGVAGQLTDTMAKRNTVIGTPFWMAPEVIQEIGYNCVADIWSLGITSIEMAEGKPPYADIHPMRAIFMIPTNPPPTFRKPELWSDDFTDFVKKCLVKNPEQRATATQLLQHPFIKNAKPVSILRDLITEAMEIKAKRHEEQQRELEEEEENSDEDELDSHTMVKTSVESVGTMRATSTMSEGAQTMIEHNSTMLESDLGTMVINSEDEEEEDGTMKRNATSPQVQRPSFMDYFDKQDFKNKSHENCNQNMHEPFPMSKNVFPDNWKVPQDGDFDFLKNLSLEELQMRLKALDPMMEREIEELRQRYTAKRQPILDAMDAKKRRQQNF

[4] = biological target: panel of more than 300 wild-type and mutant kinases (313 kinase panel) (Homo sapiens, UniProt Q13555)
[5] = biological target: T2, panel of more than 300 wild-type and mutant kinases (313 kinase panel) (Homo sapiens, UniProt Q8IW41)
T2 sequence (Q8IW41 1-473): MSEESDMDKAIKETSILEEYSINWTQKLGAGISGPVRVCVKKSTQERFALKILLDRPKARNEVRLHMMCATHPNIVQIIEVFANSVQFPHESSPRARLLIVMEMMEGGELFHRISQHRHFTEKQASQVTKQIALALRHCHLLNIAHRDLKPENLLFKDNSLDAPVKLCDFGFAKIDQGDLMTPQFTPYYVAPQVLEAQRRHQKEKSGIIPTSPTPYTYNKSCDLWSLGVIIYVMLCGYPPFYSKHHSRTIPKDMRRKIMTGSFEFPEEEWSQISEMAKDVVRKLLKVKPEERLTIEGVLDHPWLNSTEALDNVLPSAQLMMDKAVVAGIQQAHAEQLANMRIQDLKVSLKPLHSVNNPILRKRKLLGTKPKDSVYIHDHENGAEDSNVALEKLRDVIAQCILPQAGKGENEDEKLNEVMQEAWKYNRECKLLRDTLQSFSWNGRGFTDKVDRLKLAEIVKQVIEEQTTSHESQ

[6] = biological target: T3, panel of more than 300 wild-type and mutant kinases (313 kinase panel) (Homo sapiens, UniProt Q9NRM7)
T3 sequence (Q9NRM7 1-1088): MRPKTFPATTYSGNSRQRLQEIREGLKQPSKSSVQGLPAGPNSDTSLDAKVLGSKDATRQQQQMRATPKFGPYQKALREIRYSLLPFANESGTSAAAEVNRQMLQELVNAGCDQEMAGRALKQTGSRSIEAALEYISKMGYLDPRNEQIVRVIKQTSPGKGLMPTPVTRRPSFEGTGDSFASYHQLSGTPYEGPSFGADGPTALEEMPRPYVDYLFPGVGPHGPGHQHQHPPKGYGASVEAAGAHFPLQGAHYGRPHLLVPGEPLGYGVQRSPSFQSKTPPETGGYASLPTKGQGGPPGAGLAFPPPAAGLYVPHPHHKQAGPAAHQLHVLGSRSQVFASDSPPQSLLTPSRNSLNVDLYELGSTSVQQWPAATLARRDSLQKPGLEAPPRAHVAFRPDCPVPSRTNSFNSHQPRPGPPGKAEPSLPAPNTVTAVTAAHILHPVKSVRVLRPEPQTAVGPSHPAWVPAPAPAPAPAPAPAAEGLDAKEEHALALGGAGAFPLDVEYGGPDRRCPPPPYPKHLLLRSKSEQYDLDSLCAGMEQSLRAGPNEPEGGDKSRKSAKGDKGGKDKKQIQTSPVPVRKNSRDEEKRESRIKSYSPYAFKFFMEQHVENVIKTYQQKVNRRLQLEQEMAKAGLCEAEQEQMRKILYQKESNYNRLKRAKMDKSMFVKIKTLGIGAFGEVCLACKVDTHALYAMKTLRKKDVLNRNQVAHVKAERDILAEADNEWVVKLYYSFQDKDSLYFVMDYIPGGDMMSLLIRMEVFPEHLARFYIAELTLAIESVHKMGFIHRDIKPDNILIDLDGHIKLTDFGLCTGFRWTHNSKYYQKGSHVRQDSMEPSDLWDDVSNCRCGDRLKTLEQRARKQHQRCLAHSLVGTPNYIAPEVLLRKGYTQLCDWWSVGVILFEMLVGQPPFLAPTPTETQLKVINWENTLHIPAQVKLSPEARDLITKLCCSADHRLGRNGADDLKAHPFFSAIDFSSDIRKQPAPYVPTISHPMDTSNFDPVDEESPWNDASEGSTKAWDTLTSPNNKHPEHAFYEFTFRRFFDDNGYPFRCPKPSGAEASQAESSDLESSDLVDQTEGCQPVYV

[7] = biological target: panel of more than 300 wild-type and mutant kinases (313 kinase panel) (Homo sapiens, UniProt Q9UKE5)
panel of more than 300 wild-type and mutant kinases (313 kinase panel) (Homo sapiens, UniProt Q9UKE5), sequence (Q9UKE5 whole entry, change not shown): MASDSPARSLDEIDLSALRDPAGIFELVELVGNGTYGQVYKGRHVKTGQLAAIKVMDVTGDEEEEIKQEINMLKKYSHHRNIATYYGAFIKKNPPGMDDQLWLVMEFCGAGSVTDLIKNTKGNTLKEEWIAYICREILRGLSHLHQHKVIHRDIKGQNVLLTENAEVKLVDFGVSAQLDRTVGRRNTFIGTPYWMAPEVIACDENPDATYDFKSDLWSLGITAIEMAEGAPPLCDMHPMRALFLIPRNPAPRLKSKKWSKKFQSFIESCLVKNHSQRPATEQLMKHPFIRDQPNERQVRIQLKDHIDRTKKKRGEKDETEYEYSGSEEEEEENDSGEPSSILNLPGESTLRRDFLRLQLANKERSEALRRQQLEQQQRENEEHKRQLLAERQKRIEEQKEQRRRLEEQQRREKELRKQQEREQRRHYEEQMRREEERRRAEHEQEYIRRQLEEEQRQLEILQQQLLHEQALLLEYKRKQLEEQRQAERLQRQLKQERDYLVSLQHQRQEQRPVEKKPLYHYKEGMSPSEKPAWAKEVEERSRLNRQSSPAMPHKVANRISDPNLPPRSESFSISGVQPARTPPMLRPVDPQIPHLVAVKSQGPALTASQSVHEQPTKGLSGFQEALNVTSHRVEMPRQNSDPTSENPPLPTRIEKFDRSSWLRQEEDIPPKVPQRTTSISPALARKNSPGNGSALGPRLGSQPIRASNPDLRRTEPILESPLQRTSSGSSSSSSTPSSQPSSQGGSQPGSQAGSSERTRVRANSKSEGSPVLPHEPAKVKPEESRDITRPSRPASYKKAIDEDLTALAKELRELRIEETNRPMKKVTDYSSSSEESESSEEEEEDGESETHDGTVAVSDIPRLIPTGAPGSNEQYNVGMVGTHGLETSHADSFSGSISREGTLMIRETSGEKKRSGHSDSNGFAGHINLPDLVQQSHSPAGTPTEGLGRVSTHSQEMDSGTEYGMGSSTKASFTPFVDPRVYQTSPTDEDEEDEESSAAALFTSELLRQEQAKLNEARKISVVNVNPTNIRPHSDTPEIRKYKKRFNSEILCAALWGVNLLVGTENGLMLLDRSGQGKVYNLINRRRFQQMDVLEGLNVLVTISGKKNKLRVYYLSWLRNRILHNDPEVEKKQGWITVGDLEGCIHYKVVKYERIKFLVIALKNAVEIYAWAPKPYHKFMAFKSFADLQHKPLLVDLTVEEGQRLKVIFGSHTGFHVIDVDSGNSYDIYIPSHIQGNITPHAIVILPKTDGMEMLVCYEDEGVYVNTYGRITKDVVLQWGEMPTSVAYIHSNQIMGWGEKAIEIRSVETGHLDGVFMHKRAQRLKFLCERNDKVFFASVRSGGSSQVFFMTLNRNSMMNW

[8] = biological target: panel of more than 300 wild-type and mutant kinases (313 kinase panel) (Homo sapiens, UniProt Q9Y5S2)
[9] = kinase MAPKAPK5, compound at 1 μM

Structure (SMILES) | %-inhibition of FLT4 ([1]; kinase FLT4, compound at 1 μM) [%] | %-inhibition of GSK3α ([2]; kinase GSK3α, compound at 1 μM) [%] | %-inhibition of MST2 ([3]; kinase MST2, 1 μM) [%] | %-inhibition, CaMK2γ ([4]; kinase CaMK2γ, 1 μM compound) [%] | %-inhibition of MAPKAPK5 [5, 9] [%] | %-inhibition of LATS2 ([6]; kinase LATS2, compound at 1 μM) [%] | %-inhibition of TNIK ([7]; kinase TNIK, 1 μM) [%] | %-inhibition of MRCKβ ([8]; kinase MRCKβ, 1 μM) [%] | %-inhibition of FLT4 ([1]; 1 µM) [%] | %-inhibition of MAPKAPK5 ([5]; 1 µM) [%] | %-inhibition of GSK3α ([2]; 1 µM) [%] | %-inhibition of MST2 ([3]; 1 µM) [%] | %-inhibition, CaMK2γ ([4]; 1 µM) [%] | %-inhibition of LATS2 ([6]; 1 µM) [%] | %-inhibition of TNIK ([7]; 1 µM) [%] | %-inhibition of MRCKβ ([8]; 1 µM) [%]
COc1cc2nccc(Oc3ccc(NC(=O)C4(C(=O)Nc5ccc(F)cc5)CC4)cc3)c2cc1OC [cabozantinib] | 100 | -10 | -0.31 | -8 | -5 | -5.61 | 16 | -3 | – | – | – | – | – | – | – | –
N#CC[C@H](C1CCCC1)n1cc(-c2ncnc3[nH]ccc23)cn1 [ruxolitinib] | – | 9 | 3 | 56 | – | 37 | 0.811 | 20 | 36 | -4.52 | – | – | – | – | – | –
Cc1cn(-c2cc(NC(=O)c3ccc(C)c(Nc4nccc(-c5cccnc5)n4)c3)cc(C(F)(F)F)c2)cn1 [nilotinib] | 17 | -0.491 | -8 | -2.76 | -4.26 | -72 | 11 | -10 | – | – | – | – | – | – | – | –
C#Cc1cccc(Nc2ncnc3cc(OCCOC)c(OCCOC)cc23)c1 [erlotinib] | – | – | – | – | – | – | – | – | 75 | 1.53 | -4 | 7 | 3 | -8 | 34 | -4
